These results are taken from publication PMC8856928, “A new strategy for hit generation: Novel in cellulo active inhibitors of CYP121A1 from Mycobacterium tuberculosis via a combined X-ray crystallographic and phenotypic screening approach (XP screen)” (European Journal of Medicinal Chemistry, 2022).

For this test, the system named is Mtb H37Rv. Nature of the test: Antimycobacterial activity assay (resazurin colorimetric, whole-cell). Type of test: cell-based, Mycobacterium tuberculosis. The settings on record: for MIC90: Mycobacterium tuberculosis, H37RV; for Activity against Mtb: three growth media.
[1] abbreviates: 168 h, Mtb H37Rv, 7H9 with low BSA (0.05% albumin, ADN), one week, read-out: MIC90 7H9-Low BSA.
The mark [2] stands for this setting: 168 h, Mtb H37Rv, Middlebrook 7H9 with 10% ADC (BSA rich), one week, read-out: MIC90 c7H9.
Where [3] appears, read: 336 h, Mtb H37Rv, Mycobacterial Minimal Medium with cholesterol, two weeks, read-out: MIC90 MMM-Ch.
The mark [4] stands for this setting: medium not specified or span over the three growth media tested, read-out: MIC90 against Mtb strain H37Rv.

Converted amounts (≈) assume the structure as drawn. Where two headings read alike, the source gives them in different places. Bounds are passed on as bounds.

By MIC90 is commonly meant an inhibitory concentration at the 90% level, which refers to growth in some studies and to a panel of isolates in others. As to `c1ccc2c(CCc3ccnc(N4CCSCC4)n3)c[nH]c2c1` [Compound 15, 4-(4-(2-(1H-Indol-3-yl)ethyl)pyrimidin-2-yl)thiomorpholine], the MIC90 is 100 µM (≈ 32.4 µg/mL) under setting [1], 200 µM (≈ 64.9 µg/mL) under setting [2], 25 µM (≈ 8.11 µg/mL) under setting [3] and 12.5 to 50 µM (≈ 4.06 to 16.2 µg/mL) under setting [4].
On to `COC1CN(c2nccc(CCc3c[nH]c4ccc(Cl)cc34)n2)C1` [Compound 32, 5-Chloro-3-(2-(2-(3-methoxyazetidin-1-yl)pyrimidin-4-yl)ethyl)-1H-indole], for which the MIC90 was 100 µM (≈ 34.3 µg/mL) under setting [1], 200 µM (≈ 68.6 µg/mL) under setting [2], 50 µM (≈ 17.1 µg/mL) under setting [3] and 12.5 to 50 µM (≈ 4.29 to 17.1 µg/mL) under setting [4].
In the case of `Brc1ccc2c(c1)N(c1nccc(CCc3c[nH]c4ccccc34)n1)CCO2` [Compound 63, 4-(4-(2-(1H-Indol-3-yl)ethyl)pyrimidin-2-yl)-6-bromo-3,4-dihydro-2H-benzo[b][1,4]oxazine], the “Activity against Mtb” value is “moderate inhibitors”. The MIC90 under setting [1] is 50 µM (≈ 21.8 µg/mL). Moreover, the MIC90 under setting [2] was found to be 25 µM (≈ 10.9 µg/mL). Further, the MIC90 under setting [3] is 50 µM (≈ 21.8 µg/mL).
As for `Fc1ccc2[nH]cc(CCc3ccnc(N4CCOCC4)n3)c2c1` [Compound 51, 4-(4-(2-(5-Fluoro-1H-indol-3-yl)ethyl)pyrimidin-2-yl)morpholine], the “Activity against Mtb” value was “moderate inhibitors”. The MIC90 under setting [1] turned out to be 50 µM (≈ 16.3 µg/mL). For the same compound, the MIC90 under setting [2] is 25 µM (≈ 8.16 µg/mL). Moreover, the MIC90 under setting [3] turned out to be 25 µM (≈ 8.16 µg/mL).
Regarding `CN1CCN(c2nccc(CCc3c[nH]c4ccc(Br)cc34)n2)CC1` [Compound 23, 5-Bromo-3-(2-(2-(4-methylpiperazin-1-yl)pyrimidin-4-yl)ethyl)-1H-indole], the MIC90 is 25 µM (≈ 10 µg/mL) under setting [1], 100 µM (≈ 40 µg/mL) under setting [2], 12.5 µM (≈ 5 µg/mL) under setting [3] and 12.5 to 50 µM (≈ 5 to 20 µg/mL) under setting [4].
On to `c1ccc2c(CCc3ccnc(N4CC5CCC(C4)O5)n3)c[nH]c2c1` [Compound 58, 3-(4-(2-(1H-Indol-3-yl)ethyl)pyrimidin-2-yl)-8-oxa-3-azabicyclo[3.2.1]octane], for which the “Activity against Mtb” value is “active, but showed much reduced potency in BSA rich medium”. The MIC90 under setting [1] came to 50 µM (≈ 16.7 µg/mL). Moreover, the MIC90 under setting [2] turned out to be 200 µM (≈ 66.9 µg/mL). In addition, the MIC90 under setting [3] is 25 µM (≈ 8.36 µg/mL).
With `c1ccc2c(CCc3ccnc(N4CCCOCC4)n3)c[nH]c2c1` [Compound 60, 4-(4-(2-(1H-Indol-3-yl)ethyl)pyrimidin-2-yl)-1,4-oxazepane], the “Activity against Mtb” value is reported as “moderate inhibitors”. Further, under setting [1], the MIC90 turned out to be 50 µM (≈ 16.1 µg/mL). In addition, the MIC90 under setting [2] is 25 µM (≈ 8.06 µg/mL). Also, the MIC90 under setting [3] amounted to 25 µM (≈ 8.06 µg/mL).
In the case of `CO[C@H]1/C=C/O[C@@]2(C)Oc3c(C)c(O)c4c(O)c(c(/C=N/N5CCN(C)CC5)c(O)c4c3C2=O)NC(=O)/C(C)=C\C=C\[C@H](C)[C@H](O)[C@@H](C)[C@@H](O)[C@@H](C)[C@H](OC(C)=O)[C@@H]1C` [Rifampicin, reference compound], the MIC90 runs as follows: under setting [1], 0.013 µM (≈ 0.0107 µg/mL); under setting [2], 0.023 µM (≈ 0.0189 µg/mL); under setting [3], 0.013 µM (≈ 0.0107 µg/mL).
As to `FC(F)(F)Oc1ccc2[nH]cc(CCc3ccnc(N4CCOCC4)n3)c2c1` [Compound 53, 4-(4-(2-(5-(Trifluoromethoxy)-1H-indol-3-yl)ethyl)pyrimidin-2-yl)morpholine], the “Activity against Mtb” value is recorded as “moderate inhibitors”. For the same compound, under setting [1], the MIC90 stood at 25 µM (≈ 9.81 µg/mL). For the same compound, under setting [2], the MIC90 is 25 µM (≈ 9.81 µg/mL). Under setting [3], the MIC90 came to 50 µM (≈ 19.6 µg/mL).
Regarding `Brc1ccc2[nH]cc(CCc3ccnc(N4CCCO4)n3)c2c1` [Compound 30, 2-(4-(2-(5-Bromo-1H-indol-3-yl)ethyl)pyrimidin-2-yl)isoxazolidine], the MIC90 under setting [1] is 200 µM (≈ 74.7 µg/mL), the MIC90 under setting [2] was 200 µM (≈ 74.7 µg/mL) and the MIC90 under setting [3] came out at 100 µM (≈ 37.3 µg/mL).
Take `CC(=O)n1cc(CCc2ccnc(N3CCOCC3)n2)c2ccccc21` [Compound 64, 1-(3-(2-(2-Morpholinopyrimidin-4-yl)ethyl)-1H-indol-1-yl)ethan-1-one]: the “Activity against Mtb” value is listed as “essentially lost all activity”. Moreover, the MIC90 under setting [1] is over 400 µM. The MIC90 under setting [2] was over 400 µM. For the same compound, the MIC90 under setting [3] is over 400 µM.
